Legend:
Experiment in all cases: relative viability (nuclei count vs DMSO), 5 days (fraction); higher = more cells survive
[1] = compound: N[C@@H]1CCCN(c2c(/C=C3\SC(=O)NC3=O)cccc2-c2ccccc2)C1 [AZD1208] + CC1(C)CCC(c2ccc(Cl)cc2)=C(CN2CCN(c3ccc(C(=O)NS(=O)(=O)c4ccc(N[C@H](CCN5CCOCC5)CSc5ccccc5)c(S(=O)(=O)C(F)(F)F)c4)cc3)CC2)C1 [Navitoclax] (partner 0.5 µM)
Outline: (§1)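 Cells from lung cancer lines were seeded into 1536-well plates and, one day later, dosed by pin tool. Treatments were either a single drug or a fixed dose of an anchor drug with five library-drug doses (not always all listed) in √10 steps. After 5 days, nuclei were stained in a one-step fixation (final 0.05% Triton X-100, 1% formaldehyde, 1 ug/ml Hoechst) and counted on 4× images, and relative viability is the treated-to-vehicle nuclei ratio, as the median of duplicate plates.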

[2] = compound: CN1CCN(CC1)C2=CC(=C(C=C2)NC3=NC(=C(S3)C(=O)C4=C(C=CC=C4Cl)Cl)N)OC [XMD14-99] + COc1cccc2cc(-c3nc([C@H]4CC[C@H](C(=O)O)CC4)n4ncnc(N)c34)[nH]c12 [OSI-027] (partner 0.5 µM)
Outline: as §1

[3] = compound: N[C@@H]1CCCN(c2c(/C=C3\SC(=O)NC3=O)cccc2-c2ccccc2)C1 [AZD1208] + CS(=O)(=O)CCNCc1ccc(-c2ccc3ncnc(Nc4ccc(OCc5cccc(F)c5)c(Cl)c4)c3c2)o1 [Lapatinib] (partner 2 µM)
Outline: as §1

[4] = compound: CN1CCN(CC1)C2=CC(=C(C=C2)NC3=NC(=C(S3)C(=O)C4=C(C=CC=C4Cl)Cl)N)OC [XMD14-99] + CC1(C)CCC(c2ccc(Cl)cc2)=C(CN2CCN(c3ccc(C(=O)NS(=O)(=O)c4ccc(N[C@H](CCN5CCOCC5)CSc5ccccc5)c(S(=O)(=O)C(F)(F)F)c4)cc3)CC2)C1 [Navitoclax] (partner 0.5 µM)
Outline: as §1

UMC-11 showed a relative viability ([1]; first compound 0.08 µM) of 0.272, a relative viability ([1]; first compound 0.253 µM) of 0.301 and a relative viability ([1]; first compound 0.8 µM) of 0.251. It also gave a relative viability ([1]; first compound 2.53 µM) of 0.236, a relative viability ([1]; first compound 8 µM) of 0.195 and a relative viability ([2]; first compound 0.08 µM) of 0.495. The relative viability ([2]; first compound 0.8 µM) was 0.46, the relative viability ([2]; first compound 2.53 µM) was 0.421 and the relative viability ([2]; first compound 8 µM) was 0.359. For the same cell line, the relative viability ([3]; first compound 0.08 µM) was 0.819, the relative viability ([3]; first compound 0.253 µM) was 0.739 and the relative viability ([3]; first compound 0.8 µM) was 0.679. The relative viability ([3]; first compound 2.53 µM) was 0.487, the relative viability ([3]; first compound 8 µM) was 0.466 and the relative viability ([4]; first compound 0.08 µM) was 0.308. It also gave a relative viability ([4]; first compound 0.8 µM) of 0.33, a relative viability ([4]; first compound 2.53 µM) of 0.343 and a relative viability ([4]; first compound 8 µM) of 0.317.
